Assay results reported in US20030180777A1, “Rapid identification of transcriptional regulatory domains” (priority 2002, published 2003).

Tests used:
Type in all cases: cell-based
P2X7 [1] = target: T1, P2X7 (Mus musculus, UniProt Q9Z1M0); assay: BzATP-induced EtBr uptake in Neuro-2A cells by FACS
T1 construct: mouse Neuro-2A cells (expressing P2X7); endogenous in cells; host or cells: mouse Neuro-2A cells
T1 sequence (Q9Z1M0 1-595): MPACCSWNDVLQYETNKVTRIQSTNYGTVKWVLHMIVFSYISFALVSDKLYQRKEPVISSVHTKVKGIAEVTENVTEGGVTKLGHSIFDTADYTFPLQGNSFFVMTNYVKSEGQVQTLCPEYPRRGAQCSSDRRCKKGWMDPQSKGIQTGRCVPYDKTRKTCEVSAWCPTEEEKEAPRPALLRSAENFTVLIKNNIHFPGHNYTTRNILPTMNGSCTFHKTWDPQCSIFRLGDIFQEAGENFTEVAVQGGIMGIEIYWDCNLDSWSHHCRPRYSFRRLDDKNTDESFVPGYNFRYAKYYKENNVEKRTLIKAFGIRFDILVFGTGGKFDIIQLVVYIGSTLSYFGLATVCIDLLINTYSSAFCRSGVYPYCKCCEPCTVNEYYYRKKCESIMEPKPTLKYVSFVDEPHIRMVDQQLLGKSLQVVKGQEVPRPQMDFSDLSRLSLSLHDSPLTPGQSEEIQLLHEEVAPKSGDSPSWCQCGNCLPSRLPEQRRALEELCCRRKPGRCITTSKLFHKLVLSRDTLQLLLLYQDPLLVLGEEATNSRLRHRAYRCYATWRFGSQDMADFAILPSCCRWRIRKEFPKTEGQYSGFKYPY
Method: To test the suitability of the P2X7 gene as a reporter for high-throughput screening for repression domains, mouse Neuro-2A cells (expressing P2X7) were transiently transfected with a plasmid expressing a zinc finger DNA-binding domain targeted to the P2X7 gene (ZFP #5493) linked to a KOX1 repression domain. Control Neuro-2A cells were transfected with a vector lacking both library sequences and ZFP-encoding sequences (i.e., empty vector). Cells were treated for 10 minutes with different concentrations of BzATP (ranging from 0 to 1 mM), and EtBr was then added to a final concentration of 10 μM. After 20 minutes, cells were harvested by centrifugation, washed in PBS and analyzed by FACS.

P2X7 [2] = target: T1, P2X7; assay: BzATP-induced death of Neuro-2A cells
Method: To test this selection method, Neuro-2A cells were transiently transfected with empty vector (see Example 3 supra) or with a plasmid expressing a KOX1 repressor domain linked to the P2X7-targeted zinc finger binding domain ZFP #5493. 48 hours after transfection, cells were detached from the plate with Trypsin-EDTA, collected by centrifugation and resuspended in HKS assay buffer (125 mM KC1, 1 mM EDTA, 5 mM glucose, 20 mM HEPES, pH 7.4 adjusted with KOH). Resuspended cells were mixed with BzATP (final concentrations ranging from 0 to 1 mM) and plated onto 6 well plates (1×10^5 cells/well in 1 ml HKS). After a 2h incubation at 37° C. in a cell incubator, cells were washed with PBS, and growth medium (minimal essential medium with Earle's salts and non-essential amino acids, adjusted to contain 2 mM L-glutamine, 1.5 g/L Na bicarbonate, 1.0 mM Na pyruvate and 10% fetal bovine serum) was added to plates.

P2X7 [3] = target: T1, P2X7; assay: BzATP-induced YO-PRO-1 uptake in Neuro-2A cells by flow cytometry; conditions: 0.2 mM BzATP, FIG. 1 left panel
Method: ZFP/KOX-1-expressing cells were also assayed for P2X7 activity by measuring their ability to take up the DNA-binding dye YO-PRO-1, as follows. Seven days after the initial BzATP treatment, pools of clones containing 2-5×10^5 cells were incubated with 0.2 mM BzATP for 10 minutes in HKS Buffer (125 mM KCl, 1 mM EDTA, 5 mM glucose, 20 mM HEPES-KOH, pH 7.4). YO-PRO-1 (Molecular Probes, Inc., Eugene, Oreg.) was added to a final concentration of 5 μM. After an additional 25 min incubation in the presence of the dye, the cells were washed with PBS, collected by centrifugation, resuspended in PBS, and analyzed by FACS on a Beckman-Coulter EPICS XL flow cytometer.

EtBr accumulation at higher concentrations of BzATP (P2X7 [1]; BzATP above 0.04 mM, range tested up to 1 mM): induced significant accumulation of EtBr | YO-PRO-1 uptake by control uninfected cells in the presence of BzATP (P2X7 [3]): substantial amounts of YO-PRO-1
Substance: benzoylbenzoyl ATP [BzATP]
EtBr uptake at low concentrations of BzATP (P2X7 [1]; BzATP up to 0.04 mM): did not induce significant uptake of EtBr | cell death at relatively low concentrations of BzATP (P2X7 [2]; BzATP >20 μM, cells transfected with either empty vector or the ZFP-KOX construct): some death of cells | survival of cells transfected with empty vector (P2X7 [2]; BzATP concentrations >100 μM): almost no survival
